This assay concerns the target T1, full length active recombinant SYK enzyme (Homo sapiens, UniProt P43405).
T1 construct: full length active recombinant SYK enzyme (Millipore, Calif.); purchased Millipore
As to the kind of experiment: Inhibition of Syk tyrosine phosphorylation activity (LANCE TR-FRET kinase assay). To be noted: 1 nM active SYK enzyme, 550 nM SYK-substrate, 100 μM ATP, 1 hour at room temperature. Type of assay: biochemical.
As usually defined, the IC50 is the concentration that gives 50% inhibition. As for `NC(=O)c1nnc(N[C@@H]2CCCC[C@@H]2N)nc1Nc1ccn2ccnc2c1` [Example 198, 3-(((1R,2S)-2-aminocyclohexyl)amino)-5-(imidazo[1,2-a]pyridin-7-ylamino)-1,2,4-triazine-6-carboxamide], the IC50 lay in the range of 0.001 to 0.01 µM.
Next, `Cc1cccc(Nc2nc(N[C@H](CC(C)C)C(N)=O)nnc2C(N)=O)c1` [Example 120, (R)-3-((1-amino-4-methyl-1-oxopentan-2-yl)amino)-5-(m-tolylamino)-1,2,4-triazine-6-carboxamide]: 0.01 to 0.1 µM; `NC(=O)c1nnc(N[C@@H]2CCCC[C@@H]2N)nc1Nc1ccc2cn[nH]c2c1` [Example 126, 5-((1H-indazol-6-yl)amino)-3-(((1R,2S)-2-aminocyclohexyl)amino)-1,2,4-triazine-6-carboxamide]: under 0.001 µM; `CC[C@@H](Nc1nnc(C(N)=O)c(Nc2cncs2)n1)C(N)=O` [Example 199, (R)-3-((1-amino-1-oxobutan-2-yl)amino)-5-(thiazol-5-ylamino)-1,2,4-triazine-6-carboxamide]: 0.1 to 1 µM.
With `NC(=O)c1nnc(N[C@@H]2CCCC(F)(F)[C@@H]2N)nc1Nc1cccc(-c2ncccn2)c1` [Example 2, 3-(((1R,2R)-2-amino-3,3-difluorocyclohexyl)amino)-5-((3-(pyrimidin-2-yl)phenyl)amino)-1,2,4-triazine-6-carboxamide], the half-inhibitory concentration (IC50) was 0.1 to 1 µM.
Take `CC(C)C[C@@H](Nc1nnc(C(N)=O)c(Nc2cccc(-c3ncccn3)c2)n1)C(N)=O` [Example 77, (R)-3-((1-amino-4-methyl-1-oxopentan-2-yl)amino)-5-((3-(pyrimidin-2-yl)phenyl)amino)-1,2,4-triazine-6-carboxamide]: the concentration for half-maximal inhibition (IC50) was in the range of 0.01 to 0.1 µM.
Then `Cn1ccc2cc(Nc3nc(N[C@@H]4CCCC[C@@H]4N)nnc3C(N)=O)cnc21` [Example 154, 3-(((1R,2S)-2-aminocyclohexyl)amino)-5-((1-methyl-1H-pyrrolo[2,3-b]pyridin-5-yl)amino)-1,2,4-triazine-6-carboxamide], with 0.001 to 0.01 µM; and `NC(=O)c1nnc(N[C@@H]2CCCC[C@@H]2N)nc1NC1CCc2ccccc2C1` (stereo partly drawn) [Example 206, 3-(((1R,2S)-2-aminocyclohexyl)amino)-5-((1,2,3,4-tetrahydronaphthalen-2-yl)amino)-1,2,4-triazine-6-carboxamide], with 0.01 to 0.1 µM.
Turning to `CC[C@@H](Nc1nnc(C(N)=O)c(Nc2cccc(C(F)(F)F)c2)n1)C(N)=O` [Example 171, (R)-3-((1-amino-1-oxobutan-2-yl)amino)-5-((3-(trifluoromethyl)phenyl)amino)-1,2,4-triazine-6-carboxamide], the half-inhibitory concentration (IC50) was in the range of 0.1 to 1 µM.
As for `NC(=O)c1nnc(N[C@H](CC2CC2)C(N)=O)nc1Nc1ccc(Cl)c(Cl)c1` [Example 254, (R)-3-((1-amino-3-cyclopropyl-1-oxopropan-2-yl)amino)-5-((3,4-dichlorophenyl)amino)-1,2,4-triazine-6-carboxamide], the IC50 was in the range of 0.01 to 0.1 µM.
For `CC[C@@H](Nc1nnc(C(N)=O)c(Nc2ccc3scnc3c2)n1)C(N)=O` [Example 246, (R)-3-((1-amino-1-oxobutan-2-yl)amino)-5-(benzo[d]thiazol-5-ylamino)-1,2,4-triazine-6-carboxamide], the IC50 fell in the range of 0.01 to 0.1 µM.
For `Cn1ncc2c(Nc3nc(N[C@@H]4CCCC[C@@H]4N)nnc3C(N)=O)ccnc21` [Example 104, 3-(((1R,2S)-2-aminocyclohexyl)amino)-5-((1-methyl-1H-pyrazolo[3,4-b]pyridin-4-yl)amino)-1,2,4-triazine-6-carboxamide], the IC50 lay within 0.01 to 0.1 µM.
Next, `CC[C@@H](Nc1nnc(C(N)=O)c(Nc2cccc(C)c2)n1)C(N)=O` [Example 13, (R)-3-((1-amino-1-oxobutan-2-yl)amino)-5-(m-tolylamino)-1,2,4-triazine-6-carboxamide]: 0.01 to 0.1 µM; `CC[C@@H](Nc1nnc(C(N)=O)c(Nc2ccc(-n3nccn3)cc2)n1)C(N)=O` [Example 98, (R)-5-((4-(2H-1,2,3-triazol-2-yl)phenyl)amino)-3-((1-amino-1-oxobutan-2-yl)amino)-1,2,4-triazine-6-carboxamide]: 0.01 to 0.1 µM; `NC(=O)c1nnc(N[C@@H]2CCCC(F)(F)[C@@H]2N)nc1Nc1ccc2ncsc2c1` [Example 43, 3-(((1R,2R)-2-amino-3,3-difluorocyclohexyl)amino)-5-(benzo[d]thiazol-6-ylamino)-1,2,4-triazine-6-carboxamide]: 0.01 to 0.1 µM.
Next, `CC(C)C[C@@H](Nc1nnc(C(N)=O)c(Nc2ccc3c(cnn3C)c2)n1)C(N)=O` [Example 111, (R)-3-((1-amino-4-methyl-1-oxopentan-2-yl)amino)-5-((1-methyl-1H-indazol-5-yl)amino)-1,2,4-triazine-6-carboxamide]: 0.001 to 0.01 µM; `NC(=O)c1nnc(N[C@@H]2CCOC[C@@H]2N)nc1Nc1cnc2cccnc2c1` [Example 257, 5-((1,5-naphthyridin-3-yl)amino)-3-(((3R,4R)-3-aminotetrahydro-2H-pyran-4-yl)amino)-1,2,4-triazine-6-carboxamide]: 0.1 to 1 µM.
Consider `NC(=O)c1nnc(N[C@@H]2CCCC[C@@H]2N)nc1Nc1ccc(F)cc1` [Example 25, 3-(((1R,2S)-2-aminocyclohexyl)amino)-5-((4-fluorophenyl)amino)-1,2,4-triazine-6-carboxamide], for which the IC50 was 0.01 to 0.1 µM.
Next, `NC(=O)c1nnc(N[C@@H]2CCCC[C@@H]2N)nc1Nc1ccc(-n2nccn2)cc1` [Example 97, 5-((4-(2H-1,2,3-triazol-2-yl)phenyl)amino)-3-(((1R,2S)-2-aminocyclohexyl)amino)-1,2,4-triazine-6-carboxamide]: 0.01 to 0.1 µM; `CC(C)[C@@H](Nc1nnc(C(N)=O)c(Nc2ccc3ncccc3c2)n1)C(N)=O` [Example 52, (R)-3-((1-amino-3-methyl-1-oxobutan-2-yl)amino)-5-(quinolin-6-ylamino)-1,2,4-triazine-6-carboxamide]: 0.01 to 0.1 µM; `NC(=O)c1nnc(N[C@@H]2CCCC(F)(F)[C@@H]2N)nc1Nc1ccc2c(c1)COC2` [Example 216, 3-(((1R,2R)-2-amino-3,3-difluorocyclohexyl)amino)-5-((1,3-dihydroisobenzofuran-5-yl)amino)-1,2,4-triazine-6-carboxamide]: 0.01 to 0.1 µM.
For `Cn1cc2ccc(Nc3nc(N[C@@H]4CCCC[C@@H]4N)nnc3C(N)=O)cc2n1` [Example 181, 3-(((1R,2S)-2-aminocyclohexyl)amino)-5-((2-methyl-2H-indazol-6-yl)amino)-1,2,4-triazine-6-carboxamide], the half-inhibitory concentration (IC50) is 0.001 to 0.01 µM.
Next, `NC(=O)c1nnc(N[C@@H]2CCCC[C@@H]2N)nc1Nc1cnc2ccccc2c1` [Example 58, 3-(((1R,2S)-2-aminocyclohexyl)amino)-5-(quinolin-3-ylamino)-1,2,4-triazine-6-carboxamide]: 0.001 to 0.01 µM; `CC[C@@H](Nc1nnc(C(N)=O)c(Nc2cc(Cl)c3ncccc3c2)n1)C(N)=O` [Example 177, (R)-3-((1-amino-1-oxobutan-2-yl)amino)-5-((8-chloroquinolin-6-yl)amino)-1,2,4-triazine-6-carboxamide]: 0.001 to 0.01 µM.

The values are drawn from patent US9040530B2, “1,2,4-triazine-6-carboxamide kinase inhibitors” (Portola Pharmaceuticals, Inc., priority 2012, dated 2015).
